pIC50: −log10 of the molar value.
Tests used:
[1] = system: CT26; assay: Antitumor activity against mouse CT26 cells xenografted in Balb/c mouse assessed as median time to end point at 200 mg/kg, po bid for 22 days; format: functional
[2] = target: Androgen receptor (Homo sapiens) (UniProt P10275); assay: Inhibition of Androgen receptor (unknown origin) at 10 uM
[3] = species: Homo sapiens; assay: Inhibition of Platelet-activating factor (unknown origin) at 10 uM
[4] = Tmax in Sprague-Dawley rat plasma at 10 mg/kg, po by LC-MS/MS analysis; format: ADME, organism-based
[5] = target: T1, Glutamate [NMDA] receptor (Homo sapiens) (UniProt Q05586+Q12879+Q13224+O15399+O60391+Q14957+Q8TCU5); assay: Inhibition of NMDA receptor phencyclidine binding site (unknown origin) at 10 uM
[6] = target: Histamine H3 receptor (Homo sapiens) (UniProt Q9Y5N1); assay: Inhibition of Histamine H3 receptor (unknown origin) at 10 uM
[7] = target: Substance-P receptor (Homo sapiens) (UniProt P25103); assay: Inhibition of Tachykinin NK1 receptor (unknown origin) at 10 uM
[8] = species: Homo sapiens; assay: Inhibition of GABAA receptor central muscimol site (unknown origin) at 10 uM
[9] = target: Sodium-dependent dopamine transporter (Homo sapiens) (UniProt Q01959); assay: Inhibition of DAT (unknown origin) at 10 uM
Chain of Sodium-dependent dopamine transporter (Homo sapiens) (Q01959 whole entry): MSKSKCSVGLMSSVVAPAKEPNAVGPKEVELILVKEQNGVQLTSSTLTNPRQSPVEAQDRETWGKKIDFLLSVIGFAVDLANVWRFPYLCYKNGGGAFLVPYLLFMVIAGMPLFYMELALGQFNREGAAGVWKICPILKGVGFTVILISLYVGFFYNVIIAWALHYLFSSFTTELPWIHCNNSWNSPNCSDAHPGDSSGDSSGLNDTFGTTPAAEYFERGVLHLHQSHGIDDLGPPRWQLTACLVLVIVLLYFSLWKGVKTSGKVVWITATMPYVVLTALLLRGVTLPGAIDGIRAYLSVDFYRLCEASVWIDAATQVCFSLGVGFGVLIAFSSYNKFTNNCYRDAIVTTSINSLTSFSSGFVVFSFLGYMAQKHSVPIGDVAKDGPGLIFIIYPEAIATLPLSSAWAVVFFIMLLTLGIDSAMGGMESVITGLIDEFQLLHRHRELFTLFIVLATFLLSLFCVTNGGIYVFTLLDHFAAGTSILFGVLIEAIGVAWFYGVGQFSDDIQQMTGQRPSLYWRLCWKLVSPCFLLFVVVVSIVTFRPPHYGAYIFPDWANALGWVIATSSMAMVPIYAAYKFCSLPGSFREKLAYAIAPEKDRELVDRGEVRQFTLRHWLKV

[10] = target: D(3) dopamine receptor (Homo sapiens) (UniProt P35462); assay: Inhibition of Dopamine D3 receptor (unknown origin) at 10 uM
[11] = species: Homo sapiens; assay: Inhibition of MT1 receptor (unknown origin) at 10 uM
[12] = target: T1, Glutamate [NMDA] receptor (Homo sapiens); assay: Inhibition of NMDA receptor glycine binding site (unknown origin) at 10 uM
[13] = target: Interleukin-1 receptor type 1 (Homo sapiens) (UniProt P14778); assay: Inhibition of IL-1 receptor (unknown origin) at 10 uM
[14] = AUC (0 to infinity) in Sprague-Dawley rat plasma at 2 mg/kg, iv by LC-MS/MS analysis; format: ADME, organism-based; parameters: dose 2 mg/kg, route intravenous, time infinity
[15] = target: Muscarinic acetylcholine receptor M3 (Homo sapiens) (UniProt P20309); assay: Inhibition of Muscarinic M3 receptor (unknown origin) at 10 uM
[16] = target: Adenosine receptor A1 (Homo sapiens) (UniProt P30542); assay: Inhibition of Adenosine A1 receptor (unknown origin) at 10 uM
[17] = system: Mus musculus; assay: Decrease in ratio of kynurenine to tryptophan in C57BL/6 mouse at 50 mg/kg, po after 5 hrs by LC-MS/MS analysis; format: functional; settings: C57BL/6, po
[18] = target: B2 bradykinin receptor (Homo sapiens) (UniProt P30411); assay: Inhibition of Bradykinin B2 receptor (unknown origin) at 10 uM
Chain of B2 bradykinin receptor (Homo sapiens) (P30411 whole entry): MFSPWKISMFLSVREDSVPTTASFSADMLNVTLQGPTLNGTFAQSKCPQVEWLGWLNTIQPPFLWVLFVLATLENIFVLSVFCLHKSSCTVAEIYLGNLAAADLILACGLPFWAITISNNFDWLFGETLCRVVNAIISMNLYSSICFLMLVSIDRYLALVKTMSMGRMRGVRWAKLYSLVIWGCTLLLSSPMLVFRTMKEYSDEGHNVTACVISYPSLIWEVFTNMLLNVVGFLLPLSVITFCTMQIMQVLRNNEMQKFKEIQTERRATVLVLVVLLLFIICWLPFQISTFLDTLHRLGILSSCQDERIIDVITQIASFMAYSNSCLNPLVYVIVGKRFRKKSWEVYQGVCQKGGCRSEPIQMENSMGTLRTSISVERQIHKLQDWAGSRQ

[19] = system: CT26; assay: Antitumor activity against mouse CT26 cells xenografted in Balb/c mouse assessed as reduction in tumor weight at 100 mg/kg bid for 18 days administered via oral gavage; format: functional; settings: 432 h
[20] = target: Gamma-aminobutyric acid type B receptor subunit 1 (Homo sapiens) (UniProt Q9UBS5); assay: Inhibition of GABAB1A receptor (unknown origin) at 10 uM
Chain of Gamma-aminobutyric acid type B receptor subunit 1 (Homo sapiens) (Q9UBS5 whole entry): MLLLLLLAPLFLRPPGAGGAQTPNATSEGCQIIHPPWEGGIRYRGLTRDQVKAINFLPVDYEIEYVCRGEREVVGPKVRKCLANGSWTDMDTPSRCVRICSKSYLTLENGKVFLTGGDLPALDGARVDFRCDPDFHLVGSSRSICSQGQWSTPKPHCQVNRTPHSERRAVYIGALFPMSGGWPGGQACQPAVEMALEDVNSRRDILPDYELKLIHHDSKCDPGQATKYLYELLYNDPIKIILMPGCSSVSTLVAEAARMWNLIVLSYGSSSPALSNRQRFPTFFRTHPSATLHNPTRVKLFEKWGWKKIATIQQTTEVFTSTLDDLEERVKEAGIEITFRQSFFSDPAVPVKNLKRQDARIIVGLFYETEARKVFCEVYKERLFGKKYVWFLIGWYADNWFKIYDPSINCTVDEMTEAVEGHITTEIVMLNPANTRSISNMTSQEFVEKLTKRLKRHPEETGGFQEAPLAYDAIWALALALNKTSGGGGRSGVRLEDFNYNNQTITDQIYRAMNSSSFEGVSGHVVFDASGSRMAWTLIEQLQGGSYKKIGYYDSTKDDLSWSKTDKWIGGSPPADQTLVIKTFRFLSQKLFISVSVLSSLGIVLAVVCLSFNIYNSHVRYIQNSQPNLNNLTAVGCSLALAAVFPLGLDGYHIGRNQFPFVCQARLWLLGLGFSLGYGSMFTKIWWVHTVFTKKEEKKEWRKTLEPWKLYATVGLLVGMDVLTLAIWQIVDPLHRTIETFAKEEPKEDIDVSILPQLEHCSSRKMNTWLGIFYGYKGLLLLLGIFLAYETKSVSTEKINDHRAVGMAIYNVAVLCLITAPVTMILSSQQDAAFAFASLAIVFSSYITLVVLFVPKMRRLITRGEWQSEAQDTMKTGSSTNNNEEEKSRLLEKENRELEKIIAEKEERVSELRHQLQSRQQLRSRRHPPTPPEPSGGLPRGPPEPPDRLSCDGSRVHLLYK

[21] = Volume of distribution at steady state in Sprague-Dawley rat plasma at 2 mg/kg, iv by LC-MS/MS analysis; format: ADME, organism-based; settings: Sprague-Dawley, plasma, read-out: Vdss
[22] = species: Homo sapiens; assay: Inhibition of rolipram binding site (unknown origin) at 10 uM
[23] = target: Histamine H1 receptor (Homo sapiens) (UniProt P35367); assay: Inhibition of Histamine H1 receptor (unknown origin) at 10 uM
[24] = target: 5-hydroxytryptamine receptor 2B (Homo sapiens) (UniProt P41595); assay: Inhibition of 5-HT2B receptor (unknown origin) at 10 uM
[25] = target: 5-hydroxytryptamine receptor 3A (Homo sapiens) (UniProt P46098); assay: Inhibition of 5HT3 receptor (unknown origin) at 10 uM
[26] = Half life in Sprague-Dawley rat plasma at 10 mg/kg, po by LC-MS/MS analysis; format: ADME, organism-based
[27] = target: Histamine H2 receptor (Homo sapiens) (UniProt P25021); assay: Inhibition of Histamine H2 receptor (unknown origin) at 10 uM
[28] = species: Homo sapiens; assay: Inhibition of Sodium channel site 2 (unknown origin) at 10 uM
[29] = target: Endothelin receptor type B (Homo sapiens) (UniProt P24530); assay: Inhibition of ETB receptor (unknown origin) at 10 uM
[30] = target: 5-hydroxytryptamine receptor 1A (Homo sapiens) (UniProt P08908); assay: Inhibition of 5HT-1A (unknown origin) at 10 uM
[31] = system: CT26; assay: Antitumor activity against mouse CT26 cells xenografted in Balb/c mouse assessed as tumor growth delay at 100 mg/kg, po bid for 22 days; format: functional; settings: 528 h, read-out: TGI
[32] = target: T1, Glutamate [NMDA] receptor (Homo sapiens); assay: Inhibition of NMDA receptor agonist binding site (unknown origin) at 10 uM
[33] = target: Thyroid hormone receptor (Homo sapiens) (UniProt P10827+P10828); assay: Inhibition of Thyroid hormone receptor (unknown origin) at 10 uM; format: protein-complex assay
[34] = target: B1 bradykinin receptor (Homo sapiens) (UniProt P46663); assay: Inhibition of Bradykinin B1 receptor (unknown origin) at 10 uM
[35] = target: Epidermal growth factor receptor (Homo sapiens) (UniProt P00533); assay: Inhibition of EGF receptor (unknown origin) at 10 uM
Chain of Epidermal growth factor receptor (Homo sapiens) (P00533 whole entry): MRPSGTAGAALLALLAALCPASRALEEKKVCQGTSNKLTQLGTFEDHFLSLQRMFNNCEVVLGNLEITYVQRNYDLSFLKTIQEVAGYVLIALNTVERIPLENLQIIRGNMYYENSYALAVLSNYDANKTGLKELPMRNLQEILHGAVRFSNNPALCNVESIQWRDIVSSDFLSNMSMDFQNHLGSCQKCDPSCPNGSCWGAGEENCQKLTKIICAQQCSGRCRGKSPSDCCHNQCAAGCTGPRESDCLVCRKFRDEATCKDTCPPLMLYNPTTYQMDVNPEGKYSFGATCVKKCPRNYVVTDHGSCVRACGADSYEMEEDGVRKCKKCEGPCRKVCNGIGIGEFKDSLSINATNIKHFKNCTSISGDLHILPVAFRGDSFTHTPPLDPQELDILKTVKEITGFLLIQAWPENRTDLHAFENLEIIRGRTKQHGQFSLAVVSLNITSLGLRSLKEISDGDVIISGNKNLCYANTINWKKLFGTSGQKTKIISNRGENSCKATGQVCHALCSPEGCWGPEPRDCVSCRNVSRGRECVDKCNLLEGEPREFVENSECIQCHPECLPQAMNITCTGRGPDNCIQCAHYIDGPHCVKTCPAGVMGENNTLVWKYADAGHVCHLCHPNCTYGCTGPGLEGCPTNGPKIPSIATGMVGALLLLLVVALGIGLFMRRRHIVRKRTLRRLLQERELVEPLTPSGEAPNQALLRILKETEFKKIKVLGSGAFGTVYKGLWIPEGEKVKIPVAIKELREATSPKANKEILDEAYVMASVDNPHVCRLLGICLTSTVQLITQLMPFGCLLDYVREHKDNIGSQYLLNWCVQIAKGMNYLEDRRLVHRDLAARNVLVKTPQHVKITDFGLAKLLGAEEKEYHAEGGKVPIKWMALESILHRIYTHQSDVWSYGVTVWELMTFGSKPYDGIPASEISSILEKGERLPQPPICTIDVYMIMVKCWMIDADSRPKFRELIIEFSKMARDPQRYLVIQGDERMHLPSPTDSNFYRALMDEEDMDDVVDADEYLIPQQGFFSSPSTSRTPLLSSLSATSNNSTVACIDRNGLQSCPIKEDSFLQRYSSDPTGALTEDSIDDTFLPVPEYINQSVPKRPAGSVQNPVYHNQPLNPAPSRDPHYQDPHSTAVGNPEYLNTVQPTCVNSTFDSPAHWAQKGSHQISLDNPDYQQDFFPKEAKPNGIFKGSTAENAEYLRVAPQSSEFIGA

[36] = target: D(1A) dopamine receptor (Homo sapiens) (UniProt P21728); assay: Inhibition of Dopamine D1 receptor (unknown origin) at 10 uM
[37] = species: Homo sapiens; assay: Inhibition of GABAA receptor central flunitrazepam site (unknown origin) at 10 uM
[38] = target: Mu-type opioid receptor (Homo sapiens) (UniProt P35372); assay: Inhibition of Opiate mu receptor (unknown origin) at 10 uM
[39] = system: Mus musculus; assay: Decrease in ratio of kynurenine to tryptophan in Balb/c mouse tumor xenografted with CT26 cells at 100 mg/kg bid for 18 days administered via oral gavage after 2 hrs by LC-MS/MS analysis; format: functional
[40] = target: Muscarinic acetylcholine receptor M1 (Homo sapiens) (UniProt P11229); assay: Inhibition of Muscarinic M1 receptor (unknown origin) at 10 uM
[41] = system: Mus musculus; assay: Decrease in ratio of kynurenine to tryptophan in C57BL/6 mouse at 50 mg/kg, po after 2 hrs by LC-MS/MS analysis; format: functional; settings: C57BL/6, po
[42] = target: Estrogen receptor (Homo sapiens) (UniProt P03372); assay: Inhibition of ERalpha (unknown origin) at 10 uM
[43] = target: D(2) dopamine receptor (Homo sapiens) (UniProt P14416); assay: Inhibition of Dopamine D2S receptor (unknown origin) at 10 uM
Chain of D(2) dopamine receptor (Homo sapiens) (P14416 whole entry): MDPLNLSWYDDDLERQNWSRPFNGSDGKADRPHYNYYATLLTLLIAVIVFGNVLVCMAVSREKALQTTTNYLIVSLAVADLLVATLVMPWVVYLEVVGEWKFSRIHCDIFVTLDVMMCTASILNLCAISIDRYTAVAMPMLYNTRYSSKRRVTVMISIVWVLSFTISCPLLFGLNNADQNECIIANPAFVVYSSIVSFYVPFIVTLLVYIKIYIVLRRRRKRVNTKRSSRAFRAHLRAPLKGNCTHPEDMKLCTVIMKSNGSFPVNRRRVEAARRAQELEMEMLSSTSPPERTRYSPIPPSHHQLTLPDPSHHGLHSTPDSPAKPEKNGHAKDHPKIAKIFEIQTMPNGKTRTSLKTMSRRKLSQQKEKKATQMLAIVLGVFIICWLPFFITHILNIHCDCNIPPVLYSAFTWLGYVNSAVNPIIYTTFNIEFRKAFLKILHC

[44] = target: Indoleamine 2,3-dioxygenase 1 (Homo sapiens, UniProt P14902); assay: Inhibition of human Indoleamine 2,3-dioxygenase using L-tryptophan as substrate by emission fluorescence analysis
[45] = target: Beta-2 adrenergic receptor (Homo sapiens) (UniProt P07550); assay: Inhibition of Adrenergic beta2 receptor (unknown origin) at 10 uM
Chain of Beta-2 adrenergic receptor (Homo sapiens) (P07550 whole entry, looked up): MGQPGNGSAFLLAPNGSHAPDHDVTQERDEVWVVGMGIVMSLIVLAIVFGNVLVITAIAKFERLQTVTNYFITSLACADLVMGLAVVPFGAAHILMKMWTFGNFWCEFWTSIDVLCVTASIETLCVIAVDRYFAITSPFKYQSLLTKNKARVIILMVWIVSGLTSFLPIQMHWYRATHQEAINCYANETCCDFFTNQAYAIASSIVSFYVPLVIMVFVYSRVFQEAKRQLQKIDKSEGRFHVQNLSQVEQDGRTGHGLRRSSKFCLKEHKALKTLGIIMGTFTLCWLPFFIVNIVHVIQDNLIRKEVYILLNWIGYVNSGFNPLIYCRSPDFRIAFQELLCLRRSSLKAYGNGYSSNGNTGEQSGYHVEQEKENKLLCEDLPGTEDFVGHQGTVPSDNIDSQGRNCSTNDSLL

Chain of Androgen receptor (Homo sapiens) (P10275 whole entry): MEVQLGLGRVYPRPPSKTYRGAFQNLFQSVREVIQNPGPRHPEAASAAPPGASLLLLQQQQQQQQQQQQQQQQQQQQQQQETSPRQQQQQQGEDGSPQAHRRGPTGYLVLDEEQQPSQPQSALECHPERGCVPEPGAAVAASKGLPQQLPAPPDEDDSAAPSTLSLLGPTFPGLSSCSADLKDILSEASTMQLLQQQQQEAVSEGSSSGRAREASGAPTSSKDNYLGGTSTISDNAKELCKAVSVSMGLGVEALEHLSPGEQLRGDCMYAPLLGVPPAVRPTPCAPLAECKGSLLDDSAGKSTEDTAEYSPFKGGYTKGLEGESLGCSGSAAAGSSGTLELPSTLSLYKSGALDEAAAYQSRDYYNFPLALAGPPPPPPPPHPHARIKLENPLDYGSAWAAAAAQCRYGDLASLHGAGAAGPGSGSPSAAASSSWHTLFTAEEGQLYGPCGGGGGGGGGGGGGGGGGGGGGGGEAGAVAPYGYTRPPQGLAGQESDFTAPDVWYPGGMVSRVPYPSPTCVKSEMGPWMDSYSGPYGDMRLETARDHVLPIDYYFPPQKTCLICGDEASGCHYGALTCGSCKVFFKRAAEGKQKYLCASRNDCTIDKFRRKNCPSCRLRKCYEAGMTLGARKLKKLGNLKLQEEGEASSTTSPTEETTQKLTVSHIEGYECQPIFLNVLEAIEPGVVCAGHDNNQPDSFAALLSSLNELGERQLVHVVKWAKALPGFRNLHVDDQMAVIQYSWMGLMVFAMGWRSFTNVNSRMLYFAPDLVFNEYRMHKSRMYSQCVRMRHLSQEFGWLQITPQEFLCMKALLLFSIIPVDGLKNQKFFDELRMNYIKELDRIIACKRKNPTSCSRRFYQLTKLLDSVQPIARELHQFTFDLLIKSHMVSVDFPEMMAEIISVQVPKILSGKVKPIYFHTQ

Structure (SMILES): O=C1Cc2cc(S(=O)(=O)NNc3ccc(Br)cc3)ccc2N1
- Time [1]: 6.4 days
- inhibition [2]: < 50%
- inhibition [3]: < 50%
- Tmax [4]: 0.8 h
- inhibition [5]: < 50%
- inhibition [6]: < 50%
- inhibition [7]: < 50%
- inhibition [8]: < 50%
- inhibition [9]: < 50%
- inhibition [10]: < 50%
- inhibition [11]: < 50%
- inhibition [12]: < 50%
- inhibition [13]: < 50%
- AUC(0-inf) [14]: 2430 ng·h/mL
- inhibition [15]: < 50%
- inhibition [16]: < 50%
- inhibition in vivo at 50 mg/kg [17]: 42%
- inhibition [18]: < 50%
- inhibition in vivo at 100 mg/kg [19]: 64%
- inhibition [20]: < 50%
- Vd [21]: 1.2 L/kg
- inhibition [22]: < 50%
- inhibition [23]: < 50%
- inhibition [24]: < 50%
- inhibition [25]: < 50%
- half-life [26]: 2.3 h
- inhibition [27]: < 50%
- inhibition [28]: < 50%
- inhibition [29]: < 50%
- inhibition [30]: < 50%
- inhibition in vivo at 100 mg/kg [31]: 40%
- inhibition [32]: < 50%
- inhibition [33]: < 50%
- inhibition [34]: < 50%
- inhibition [35]: < 50%
- inhibition [36]: < 50%
- inhibition [37]: < 50%
- inhibition [38]: < 50%
- inhibition in vivo at 100 mg/kg [39]: 58%
- inhibition [40]: < 50%
- inhibition in vivo at 50 mg/kg [41]: 31%
- inhibition [42]: < 50%
- inhibition [43]: < 50%
- pIC50 [44]: 7.45
- inhibition [45]: < 50%
